Experiments:
Human SGLT1 (hSGLT1) = Human SGLT1 (hSGLT1) (Homo sapiens (Human), UniProt P13866); assay: Inhibitory effects on human SGLT1 activities (14C-AMG uptake, sodium-dependent glucose transport assay); format: cell-based; details: 37° C. for 2 h, single determinations
Protocol: Test 3: Inhibitory Effects on Human SGLT1 Activities
(§1) For sodium-dependent glucose transport assay, cells expressing […] were seeded into a 96-well culture plate at a density of 5×10^4 cells/well in RPMI medium 1640 containing 10% fetal bovine serum. The cells were used 1 day after plating. They were incubated in pretreatment buffer (10 mM HEPES, 5 mM Tris, 140 mM choline chloride, 2 mM KCl, 1 mM CaCl2, and 1 mM MgCl2, pH 7.4) at 37° C. for 10 min. They were then incubated in uptake buffer (10 mM HEPES, 5 mM Tris, 140 mM NaCl, 2 mM KCl, 1 mM CaCl2, 1 mM MgCl2, and 1 mM ^14C-nonlabeled AMG pH 7.4) containing ^14C-labeled (8 μM) and inhibitor or dimethyl sulfoxide (DMSO) vehicle at 37° C. for 2 h. Cells were washed twice with washing buffer (pretreatment buffer containing 10 mM AMG at room temperature) and then the radioactivity was measured using a liquid scintillation counter. IC50 was determined by nonlinear regression analysis using GraphPad PRISM.

Human SGLT2 (hSGLT2) = Human SGLT2 (hSGLT2) (Homo sapiens (Human), UniProt P31639); assay: Inhibitory effects on human SGLT2 activities (14C-AMG uptake, sodium-dependent glucose transport assay); format: cell-based; details: hSGLT2-expressing CHO cells, 37° C. for 2 h, single determinations
Sequence of Human SGLT2 (hSGLT2) (P31639 whole entry): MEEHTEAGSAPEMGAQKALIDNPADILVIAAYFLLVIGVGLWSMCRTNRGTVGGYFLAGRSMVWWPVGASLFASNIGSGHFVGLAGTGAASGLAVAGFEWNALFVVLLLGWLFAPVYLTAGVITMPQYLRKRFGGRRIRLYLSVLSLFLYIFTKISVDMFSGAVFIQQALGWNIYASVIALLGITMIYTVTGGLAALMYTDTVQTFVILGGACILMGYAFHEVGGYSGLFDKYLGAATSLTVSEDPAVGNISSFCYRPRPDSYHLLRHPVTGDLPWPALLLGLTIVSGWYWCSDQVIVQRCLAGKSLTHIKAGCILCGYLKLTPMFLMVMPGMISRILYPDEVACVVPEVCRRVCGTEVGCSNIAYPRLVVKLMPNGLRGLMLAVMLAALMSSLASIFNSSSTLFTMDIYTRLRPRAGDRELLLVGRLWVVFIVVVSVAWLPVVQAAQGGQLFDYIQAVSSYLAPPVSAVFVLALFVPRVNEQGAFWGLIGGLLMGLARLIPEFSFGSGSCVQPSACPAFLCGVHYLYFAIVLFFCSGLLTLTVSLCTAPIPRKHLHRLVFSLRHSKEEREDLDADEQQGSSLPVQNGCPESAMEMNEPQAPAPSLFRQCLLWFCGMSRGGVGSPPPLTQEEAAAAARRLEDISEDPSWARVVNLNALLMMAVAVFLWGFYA
Excerpt: Test 1: Cloning and Cell Line Construction for Human SGLT2
Human SGLT2 (hSGLT2) gene was amplified by PCR from cDNA-Human Adult Normal Tissue Kidney (Invitrogen). The hSGLT2 sequence was cloned into pcDNA3.1(+) for mammalian expression and stably transfected into chinese hamster ovary (CHO) cells. SGLT2-expressing clones were selected based on resistance to G418 antibiotic (Geneticin) and activity in the ^14C-α-methyl-D-glucopyranoside (^14C-AMG) uptake assay.
Test 2: Inhibitory Effects on Human SGLT2 Activities
as §1, with “^14C-labeled AMG” for “^14C-labeled”, “the inventive compound” for “inhibitor”, “PRISM [Katsuno, K. et al. J. Pharmacol. Exp. Ther. 2007, 320, 323-330; Han, S. et al. Diabetes, 2008, 57, 1723-1729].” for “PRISM.”

Sequence of Human SGLT1 (hSGLT1) (P13866 whole entry): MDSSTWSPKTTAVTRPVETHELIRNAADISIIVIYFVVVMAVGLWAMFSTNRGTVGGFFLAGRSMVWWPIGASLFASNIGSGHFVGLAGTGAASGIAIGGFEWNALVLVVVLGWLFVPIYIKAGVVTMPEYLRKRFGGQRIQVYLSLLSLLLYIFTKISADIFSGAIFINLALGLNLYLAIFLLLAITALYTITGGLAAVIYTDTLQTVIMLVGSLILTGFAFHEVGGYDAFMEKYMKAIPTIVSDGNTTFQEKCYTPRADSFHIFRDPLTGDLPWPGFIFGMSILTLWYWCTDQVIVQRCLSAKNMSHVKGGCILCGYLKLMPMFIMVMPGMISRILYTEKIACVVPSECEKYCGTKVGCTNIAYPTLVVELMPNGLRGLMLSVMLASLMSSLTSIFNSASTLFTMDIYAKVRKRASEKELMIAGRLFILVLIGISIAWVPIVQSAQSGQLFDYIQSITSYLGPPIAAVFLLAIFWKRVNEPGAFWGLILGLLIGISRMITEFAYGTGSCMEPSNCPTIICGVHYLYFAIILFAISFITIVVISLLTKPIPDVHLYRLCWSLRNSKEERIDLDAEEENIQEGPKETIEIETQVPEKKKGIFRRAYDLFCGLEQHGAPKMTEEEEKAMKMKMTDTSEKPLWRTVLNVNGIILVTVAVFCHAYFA

| IC50 (Human SGLT1 (hSGLT1)) [nM] | IC50 (Human SGLT2 (hSGLT2)) [nM] | SMILES |
| --- | --- | --- |
| 15.2 | 0.44 | COc1ccc(Cc2cc([C@@H]3O[C@H](CO)[C@@H](O)[C@H](O)[C@H]3O)c3c(c2Br)CCC3)cc1 [Compound E001, (2S,3R,4R,5S,6R)-2-(7-Bromo-6-(4-methoxybenzyl)-2,3-dihydro-1H-inden-4-yl)-6-(hydroxymethyl)tetrahydro-2H-pyran-3,4,5-triol] |
| 62.7 | 0.75 | CCOc1ccc(Cc2cc([C@@H]3O[C@H](CO)[C@@H](O)[C@H](O)[C@H]3O)c3c(c2Br)CCC3)cc1 [Compound E002, (2S,3R,4R,5S,6R)-2-(7-Bromo-6-(4-ethoxybenzyl)-2,3-dihydro-1H-inden-4-yl)-6-(hydroxymethyl)tetrahydro-2H-pyran-3,4,5-triol] |
| 45.4 | 0.61 | CCc1ccc(Cc2cc([C@@H]3O[C@H](CO)[C@@H](O)[C@H](O)[C@H]3O)c3c(c2Br)CCC3)cc1 [Compound E003, (2S,3R,4R,5S,6R)-2-(7-Bromo-6-(4-ethylbenzyl)-2,3-dihydro-1H-inden-4-yl)-6-(hydroxymethyl)tetrahydro-2H-pyran-3,4,5-triol] |
| 37.2 | 0.68 | COc1ccc(Cc2cc([C@@H]3O[C@H](CO)[C@@H](O)[C@H](O)[C@H]3O)c3c(c2Cl)CCC3)cc1 [Compound E004, (2S,3R,4R,5S,6R)-2-(7-Chloro-6-(4-methoxybenzyl)-2,3-dihydro-1H-inden-4-yl)-6-(hydroxymethyl)tetrahydro-2H-pyran-3,4,5-triol] |
| 26.8 | 0.79 | COc1ccc(Cc2cc([C@@H]3O[C@H](CO)[C@@H](O)[C@H](O)[C@H]3O)c3c(c2C)CCC3)cc1 [Compound E005, (2R,3S,4R,5R,6S)-2-(Hydroxymethyl)-6-(6-(4-methoxybenzyl)-7-methyl-2,3-dihydro-1H-inden-4-yl)tetrahydro-2H-pyran-3,4,5-triol] |
| 116 | 0.55 | CCOc1ccc(Cc2cc([C@@H]3O[C@H](CO)[C@@H](O)[C@H](O)[C@H]3O)c3c(c2Cl)CCC3)cc1 [Compound E006, (2S,3R,4R,5S,6R)-2-(7-Chloro-6-(4-ethoxybenzyl)-2,3-dihydro-1H-inden-4-yl)-6-(hydroxymethyl)tetrahydro-2H-pyran-3,4,5-triol] |
| 160 | – | CCOc1ccc(Cc2cc([C@@H]3O[C@H](CO)[C@@H](O)[C@H](O)[C@H]3O)c3c(c2C)CCC3)cc1 [Compound E007, (2S,3R,4R,5S,6R)-2-(6-(4-Ethoxybenzyl)-7-methyl-2,3-dihydro-1H-inden-4-yl)-6-(hydroxymethyl)tetrahydro-2H-pyran-3,4,5-triol] |
| 44 | 0.88 | CCc1ccc(Cc2cc([C@@H]3O[C@H](CO)[C@@H](O)[C@H](O)[C@H]3O)c3c(c2Cl)CCO3)cc1 [Compound E008, (2S,3R,4R,5S,6R)-2-(4-Chloro-5-(4-ethylbenzyl)-2,3-dihydrobenzofuran-7-yl)-6-(hydroxymethyl)tetrahydro-2H-pyran-3,4,5-triol] |
| 77.2 | 1.6 | CCOc1ccc(Cc2cc([C@@H]3O[C@H](CO)[C@@H](O)[C@H](O)[C@H]3O)c3c(c2Cl)CCCO3)cc1 [Compound E009, (2S,3R,4R,5S,6R)-2-(5-Chloro-6-(4-ethoxybenzyl)chroman-8-yl)-6-(hydroxymethyl)tetrahydro-2H-pyran-3,4,5-triol] |
| 16.9 | 1.6 | COc1ccc(Cc2cc([C@@H]3O[C@H](CO)[C@@H](O)[C@H](O)[C@H]3O)c3c(c2Cl)CCCO3)cc1 [Compound E010, (2S,3R,4R,5S,6R)-2-(5-Chloro-6-(4-methoxybenzyl)chroman-8-yl)-6-(hydroxymethyl)tetrahydro-2H-pyran-3,4,5-triol] |
| 27 | 0.85 | CCc1ccc(Cc2cc([C@@H]3O[C@H](CO)[C@@H](O)[C@H](O)[C@H]3O)c3c(c2Cl)CCCO3)cc1 [Compound E011, (2S,3R,4R,5S,6R)-2-(5-Chloro-6-(4-ethylbenzyl)chroman-8-yl)-6-(hydroxymethyl)tetrahydro-2H-pyran-3,4,5-triol] |
| 34.4 | 1.7 | COc1ccc(Cc2cc([C@@H]3O[C@H](CO)[C@@H](O)[C@H](O)[C@H]3O)c3c(c2Cl)CCO3)cc1 [Compound E012, (2S,3R,4R,5S,6R)-2-(4-Chloro-5-(4-methoxybenzyl)-2,3-dihydrobenzofuran-7-yl)-6-(hydroxymethyl)tetrahydro-2H-pyran-3,4,5-triol] |
| 105 | 0.83 | CCOc1ccc(Cc2cc([C@@H]3O[C@H](CO)[C@@H](O)[C@H](O)[C@H]3O)c3c(c2Cl)CCO3)cc1 [Compound E013, (2S,3R,4R,5S,6R)-2-(4-Chloro-5-(4-ethoxybenzyl)-2,3-dihydrobenzofuran-7-yl)-6-(hydroxymethyl)tetrahydro-2H-pyran-3,4,5-triol] |
| 61.5 | 0.75 | CCc1ccc(Cc2cc([C@@H]3O[C@H](CO)[C@@H](O)[C@H](O)[C@H]3O)c3c(c2Cl)OCCC3)cc1 [Compound E014, (2S,3R,4R,5S,6R)-2-(8-Chloro-7-(4-ethylbenzyl)chroman-5-yl)-6-(hydroxymethyl)tetrahydro-2H-pyran-3,4,5-triol] |
| 34 | – | COc1ccc(Cc2cc([C@@H]3O[C@H](CO)[C@@H](O)[C@H](O)[C@H]3O)c3c(c2Cl)OCCO3)cc1 [Compound E015, (2S,3R,4R,5S,6R)-2-(8-Chloro-7-(4-methoxybenzyl)-2,3-dihydrobenzo[b][1,4]dioxin-5-yl)-6-(hydroxymethyl)tetrahydro-2H-pyran-3,4,5-triol] |
| 83 | 0.92 | CCc1ccc(Cc2cc([C@@H]3O[C@H](CO)[C@@H](O)[C@H](O)[C@H]3O)c3c(c2Cl)OCCO3)cc1 [Compound E016, (2S,3R,4R,5S,6R)-2-(8-Chloro-7-(4-ethylbenzyl)-2,3-dihydrobenzo[b][1,4]dioxin-5-yl)-6-(hydroxymethyl)tetrahydro-2H-pyran-3,4,5-triol] |
| 52.2 | 1.1 | OC[C@H]1O[C@@H](c2cc(Cc3ccc(C4CC4)cc3)c(Cl)c3c2OCC3)[C@H](O)[C@@H](O)[C@@H]1O [Compound E017, (2S,3R,4R,5S,6R)-2-(4-Chloro-5-(4-cyclopropylbenzyl)-2,3-dihydrobenzofuran-7-yl)-6-(hydroxymethyl)tetrahydro-2H-pyran-3,4,5-triol] |
| 26.6 | 0.85 | OC[C@H]1O[C@@H](c2cc(Cc3ccc(C4CC4)cc3)c(Cl)c3c2OCCC3)[C@H](O)[C@@H](O)[C@@H]1O [Compound E018, (2S,3R,4R,5S,6R)-2-(5-Chloro-6-(4-cyclopropylbenzyl)chroman-8-yl)-6-(hydroxymethyl)tetrahydro-2H-pyran-3,4,5-triol] |
| 111 | 0.98 | CCc1ccc(Cc2cc([C@@H]3O[C@H](CO)[C@@H](O)[C@H](O)[C@H]3O)c3c(c2Cl)CC(C)S3)cc1 (stereo partly drawn) [Compound E019, (2S,3R,4R,5S,6R)-2-(4-Chloro-5-(4-ethylbenzyl)-2-methyl-2,3-dihydrobenzo[b]thiophen-7-yl)-6-(hydroxymethyl)tetrahydro-2H-pyran-3,4,5-triol] |
| 115 | 0.69 | CCOc1ccc(Cc2cc([C@@H]3O[C@H](SC)[C@@H](O)[C@H](O)[C@H]3O)c3c(c2Cl)CC(C)O3)cc1 (stereo partly drawn) [Compound E020, (2S,3R,4R,5S,6R)-2-(4-Chloro-5-(4-ethoxybenzyl)-2-methyl-2,3-dihydrobenzofuran-7-yl)-6-(methylthio)tetrahydro-2H-pyran-3,4,5-triol] |
| 166 | 0.71 | CCOc1ccc(Cc2cc([C@@H]3O[C@H](SC)[C@@H](O)[C@H](O)[C@H]3O)c3c(c2Cl)OCCO3)cc1 [Compound E021, (2S,3R,4R,5S,6R)-2-(8-Chloro-7-(4-ethoxybenzyl)-2,3-dihydrobenzo[b][1,4]dioxin-5-yl)-6-(methylthio)tetrahydro-2H-pyran-3,4,5-triol] |
| 50 | 0.88 | OC[C@H]1O[C@@H](c2cc(Cc3ccc(C4CC4)cc3)c(Cl)c3c2CCCO3)[C@H](O)[C@@H](O)[C@@H]1O [Compound E022, (2S,3R,4R,5S,6R)-2-(8-Chloro-7-(4-cyclopropylbenzyl)chroman-5-yl)-6-(hydroxymethyl)tetrahydro-2H-pyran-3,4,5-triol] |
